Literature values as cited in article PMC3517478 (BMC Neurology, 2012).

Key:
[1] = tested on: startle mutations of the glycine receptor; conditions: propofol 1–500 μM; Xenopus laevis oocytes; cited from earlier work
[2] = tested on: transgenic mice (tg271Q-300); conditions: 15 mg/kg i.p.; cited from earlier work

CC(C)c1cccc(C(C)C)c1O [propofol]
effect on glycine induced maximal response [1]: increases the glycine induced maximal response
effect on startle symptoms (righting time, tremor) [2]: decreased righting time and abatements in tremor without sedative side effects
